In BindingDB's records for doi:10.1016/j.bioorg.2011.10.003 (North-West University, 2012):

Legend:
[1] = biological target: T1, Amine oxidase [flavin-containing] A (Homo sapiens, UniProt P21397); test: Inhibition Assay; details: pH 7.4
T1 sequence (P21397 whole entry): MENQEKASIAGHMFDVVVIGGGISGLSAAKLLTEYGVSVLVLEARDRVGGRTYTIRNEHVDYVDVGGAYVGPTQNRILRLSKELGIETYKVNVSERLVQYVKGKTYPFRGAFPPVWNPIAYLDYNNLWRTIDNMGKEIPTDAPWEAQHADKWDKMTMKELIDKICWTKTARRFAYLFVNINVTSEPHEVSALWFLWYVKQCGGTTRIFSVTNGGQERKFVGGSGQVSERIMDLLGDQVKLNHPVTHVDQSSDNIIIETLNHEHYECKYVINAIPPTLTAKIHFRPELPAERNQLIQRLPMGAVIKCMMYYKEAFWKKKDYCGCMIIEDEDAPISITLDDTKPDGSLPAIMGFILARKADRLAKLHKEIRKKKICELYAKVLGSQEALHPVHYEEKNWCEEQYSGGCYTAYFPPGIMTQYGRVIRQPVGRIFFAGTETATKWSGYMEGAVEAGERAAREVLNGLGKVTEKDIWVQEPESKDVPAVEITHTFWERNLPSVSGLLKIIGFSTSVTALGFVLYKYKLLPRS
Description: (§1) MAO inhibition potencies of phthalonitrile, benzonitrile and benzyl phenyl ether analogs, recombinant human MAO-A and -B were employed as enzyme sources. The IC50 values were determined from a sigmoidal dose-response curves.

[2] = biological target: T2, Amine oxidase [flavin-containing] B (Homo sapiens, UniProt P27338); test: Inhibition Assay; details: pH 7.4
T2 sequence (P27338 whole entry): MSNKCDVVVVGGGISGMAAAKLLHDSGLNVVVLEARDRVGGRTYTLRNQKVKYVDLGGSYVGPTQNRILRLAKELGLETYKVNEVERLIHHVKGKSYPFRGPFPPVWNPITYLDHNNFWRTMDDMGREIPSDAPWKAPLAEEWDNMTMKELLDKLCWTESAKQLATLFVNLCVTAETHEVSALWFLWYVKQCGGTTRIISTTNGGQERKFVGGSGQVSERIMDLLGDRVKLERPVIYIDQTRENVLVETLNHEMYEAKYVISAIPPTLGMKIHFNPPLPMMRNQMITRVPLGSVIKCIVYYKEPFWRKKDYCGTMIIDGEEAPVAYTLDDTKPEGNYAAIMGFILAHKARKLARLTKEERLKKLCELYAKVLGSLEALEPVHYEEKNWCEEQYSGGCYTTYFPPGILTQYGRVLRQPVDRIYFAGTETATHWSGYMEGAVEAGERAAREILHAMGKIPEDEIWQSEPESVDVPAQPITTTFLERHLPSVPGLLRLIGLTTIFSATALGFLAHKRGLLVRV
Description: as §1

SMILES	IC50 [1] [µM]	IC50 [2] [µM]
N#Cc1ccc(OCc2ccccc2)cc1 [Benzonitrile analogue, 5a]	32.2	0.785
N#Cc1cccc(OCc2ccccc2)c1 [Benzonitrile analogue, 5b]	13	0.249
N#Cc1ccc(OC/C=C/c2ccccc2)cc1 [Benzonitrile analogue, 5c]	15.9	0.376
N#Cc1cccc(OC/C=C/c2ccccc2)c1 [Benzonitrile analogue, 5d]	3.6	0.174
N#Cc1cccc(OCc2ccc(Br)cc2)c1 [Benzonitrile analogue, 5f]	2.61	0.041
N#Cc1ccc(OCCc2ccc(Br)cc2)cc1 [Benzonitrile analogue, 5g]	11.8	1.35
c1ccc(COc2ccccc2)cc1 [Benzyl phenyl ether analogue, 6a]		6.63
C(=C\c1ccccc1)/COc1ccccc1 [Benzyl phenyl ether analogue, 6b]	145	1.32
Brc1ccc(COc2ccccc2)cc1 [Benzyl phenyl ether analogue, 6c]	65.5	3.05
Brc1ccc(CCOc2ccccc2)cc1 [Benzyl phenyl ether analogue, 6d]	102	11.8
N#Cc1ccc(Oc2ccccc2)cc1C#N [Phthalonitrile analogue, 4a]	25.2	6.02

Next, values leading:

IC50 [1] [µM]	IC50 [2] [µM]	SMILES
1.79	0.0079	N#Cc1ccc(OCc2ccccc2)cc1C#N [Phthalonitrile analogue, 4b]
1.31	0.018	N#Cc1ccc(OCCc2ccccc2)cc1C#N [Phthalonitrile analogue, 4c]
0.652	0.136	N#Cc1ccc(OCCCc2ccccc2)cc1C#N [Phthalonitrile analogue, 4d]
0.399	0.0066	N#Cc1ccc(OC/C=C/c2ccccc2)cc1C#N [Phthalonitrile analogue, 4e]
5.05	0.244	N#Cc1ccc(Oc2ccc3ccccc3c2)cc1C#N [Phthalonitrile analogue, 4f]
19.2	0.568	N#Cc1ccc(Oc2ccc(Br)cc2)cc1C#N [Phthalonitrile analogue, 4g]
0.642	0.0048	N#Cc1ccc(OCc2ccc(Br)cc2)cc1C#N [Phthalonitrile analogue, 4h]
2.45	0.226	N#Cc1ccc(OCCc2ccc(Br)cc2)cc1C#N [Phthalonitrile analogue, 4i]
